The experiment concerns the target T1, hNav1.8 (Homo sapiens, UniProt Q9Y5Y9).
T1 construct: host or cells: HEK cells, stably transfected
The experiment is described as follows: hNav1.8 whole-cell patch-clamp electrophysiology in HEK cells (conventional or PatchXpress 7000). The following applies: estimated IC50 calculated from single point % inhibition; HEK cells stably transfected with hNav1.8; 20 msec step to 0 mV after 8 second prepulse to V1/2; average of replicates; read-out: NaV1.8 EIC50. It is filed as cell-based. An excerpt:
The ability of the imidazole derivatives of the formula (I) to inhibit the NaV1.8 channel may be measured using the assay described below.
HEK cells stably transfected with hNav1.8, purchased from Millipore (Millipore Corp., Billerica, Mass. 01821), were maintained according to manufacturer's instructions. For electrophysiological studies, cells were removed from the culture flask by brief trypsinization and re-plated at low density onto glass cover slips. Cells were typically used for electrophysiological experiments within 24 to 72 h after plating.
Cover slips containing HEK cells expressing hNav1.8 were placed in a bath on the stage of an inverted microscope and perfused (approximately 1 mL/min) with extracellular solution of the following composition: 138 mM NaCl, 2 mM CaCl2, 5.4 mM KCl, 1 mM MgCl2, 10 mM glucose, and 10 mM HEPES, pH 7.4, with NaOH. […] The osmolarity of the extracellular and intracellular solutions was 300 mOsm/kg and 295 mOsm/kg, respectively. All recordings were made at room temperature (22-24° C.) using AXOPATCH 200B amplifiers and PCLAMP software (Axon Instruments, Burlingame, Calif.).
hNav1.8 currents in HEK cells were measured using the whole-cell configuration of the patch-clamp technique (Hamill et al., 1981). Uncompensated series resistance was typically 2 to 5 mega ohms and >85% series resistance compensation was routinely achieved. […] Current records were acquired at 20 to 50 KHz and filtered at 5 to 10 KHz.
HEK cells stably transfected with hNav1.8 were viewed under Hoffman contrast optics and placed in front of an array of flow pipes emitting either control or compound-containing extracellular solutions. All compounds were dissolved in dimethyl sulfoxide to make 10 mM stock solutions, which were then diluted into extracellular solution to attain the final concentrations desired.
The voltage-dependence of inactivation was determined by applying a series of depolarizing prepulses (8 sec long in 10 mV increments) from a negative holding potential. The voltage was then immediately stepped to 0 mV to assess the magnitude of the sodium current. Currents elicited at 0 mV were plotted as a function of prepulse potential to allow estimation of the voltage at which 50% of the channels were inactivated (midpoint of inactivation or V1/2). Compounds were tested for their ability to inhibit hNav1.8 sodium channels by activating the channel with a 20 msec voltage step to 0 mV following an 8 second conditioning prepulse to the empirically determined V1/2. Compound effect (% inhibition) was determined by difference in current amplitude before and after application of test compounds. For ease of comparison, “estimated IC-50” values were calculated from single point electrophysiology data by the following equation, (tested concentration, uM)×(100−% inhibition/% inhibition). Inhibition values <20% and >80% were excluded from the calculation.
In some cases electrophysiological assays were conducted with PatchXpress 7000 hardware and associated software (Molecular Devices Corp). All assay buffers and solutions were identical to those used in conventional whole-cell voltage clamp experiments described above. hNav1.8 cells were grown as above to 50%-80% confluency and harvested by trypsinization. Trypsinized cells were washed and resuspended in extracellular buffer at a concentration of 1×10^6 cells/mL. The onboard liquid handling facility of the PatchXpress was used for dispensing cells and application of test compounds. Determination of the voltage midpoint of inactivation was as described for conventional whole-cell recordings. Cells were then voltage-clamped to the empirically determined V1/2 and current was activated by a 20 msec voltage step to 0 mV.

T1 sequence (Q9Y5Y9 whole entry): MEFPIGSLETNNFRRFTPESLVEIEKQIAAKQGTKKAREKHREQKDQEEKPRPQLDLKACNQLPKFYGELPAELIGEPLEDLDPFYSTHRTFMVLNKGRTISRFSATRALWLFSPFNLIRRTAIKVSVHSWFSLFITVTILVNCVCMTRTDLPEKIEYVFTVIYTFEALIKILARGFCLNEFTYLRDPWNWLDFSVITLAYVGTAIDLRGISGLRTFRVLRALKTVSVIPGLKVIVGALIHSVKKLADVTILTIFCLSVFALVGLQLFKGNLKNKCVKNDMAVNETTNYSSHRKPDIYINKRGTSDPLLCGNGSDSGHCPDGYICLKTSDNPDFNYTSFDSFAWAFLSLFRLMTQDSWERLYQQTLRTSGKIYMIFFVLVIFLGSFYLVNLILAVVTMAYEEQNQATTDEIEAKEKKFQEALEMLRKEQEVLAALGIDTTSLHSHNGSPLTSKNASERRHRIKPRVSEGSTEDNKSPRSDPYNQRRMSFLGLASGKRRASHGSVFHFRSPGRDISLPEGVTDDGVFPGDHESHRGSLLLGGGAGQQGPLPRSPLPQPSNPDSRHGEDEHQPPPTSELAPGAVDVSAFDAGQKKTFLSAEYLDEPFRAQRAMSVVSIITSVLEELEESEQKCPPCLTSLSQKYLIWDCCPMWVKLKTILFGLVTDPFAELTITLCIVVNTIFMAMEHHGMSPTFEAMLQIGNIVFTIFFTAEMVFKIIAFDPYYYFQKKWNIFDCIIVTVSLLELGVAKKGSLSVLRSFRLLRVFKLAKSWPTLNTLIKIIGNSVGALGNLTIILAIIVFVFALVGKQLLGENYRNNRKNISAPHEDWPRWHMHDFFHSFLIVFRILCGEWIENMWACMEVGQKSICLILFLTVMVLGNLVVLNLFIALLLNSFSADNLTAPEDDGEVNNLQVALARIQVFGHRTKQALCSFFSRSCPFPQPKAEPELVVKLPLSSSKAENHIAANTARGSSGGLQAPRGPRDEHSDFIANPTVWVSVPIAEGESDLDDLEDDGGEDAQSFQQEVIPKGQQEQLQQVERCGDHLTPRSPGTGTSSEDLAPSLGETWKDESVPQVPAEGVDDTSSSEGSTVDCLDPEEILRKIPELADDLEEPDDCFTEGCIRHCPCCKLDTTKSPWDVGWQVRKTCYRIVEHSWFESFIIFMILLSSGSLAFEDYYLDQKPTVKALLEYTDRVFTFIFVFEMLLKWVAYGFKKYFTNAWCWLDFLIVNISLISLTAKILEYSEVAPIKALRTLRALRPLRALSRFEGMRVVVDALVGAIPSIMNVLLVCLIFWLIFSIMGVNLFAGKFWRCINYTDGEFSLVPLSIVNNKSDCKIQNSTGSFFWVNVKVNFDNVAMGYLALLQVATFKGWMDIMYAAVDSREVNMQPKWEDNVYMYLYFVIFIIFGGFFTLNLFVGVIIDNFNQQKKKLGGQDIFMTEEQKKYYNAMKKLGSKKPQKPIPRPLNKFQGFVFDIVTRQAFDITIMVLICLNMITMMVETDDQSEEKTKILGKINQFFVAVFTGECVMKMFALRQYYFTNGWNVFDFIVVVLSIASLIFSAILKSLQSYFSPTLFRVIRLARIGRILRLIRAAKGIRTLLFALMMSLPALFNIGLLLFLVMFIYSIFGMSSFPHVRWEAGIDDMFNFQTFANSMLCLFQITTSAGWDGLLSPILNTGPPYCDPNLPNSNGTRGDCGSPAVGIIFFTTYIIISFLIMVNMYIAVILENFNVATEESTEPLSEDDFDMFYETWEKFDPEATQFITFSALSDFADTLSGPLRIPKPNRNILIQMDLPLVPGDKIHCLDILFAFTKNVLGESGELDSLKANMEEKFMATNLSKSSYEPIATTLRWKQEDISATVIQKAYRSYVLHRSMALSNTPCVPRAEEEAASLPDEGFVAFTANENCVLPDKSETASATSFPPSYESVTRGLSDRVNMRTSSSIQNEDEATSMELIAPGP

For the compound `C[C@H](c1nc(-c2ccc(C(F)(F)F)cc2)c[nH]1)C1(N)COC1` (single isomer, unassigned) [Example 13], the IC50 was 7.8 nM.

As for `CCC(c1nc(-c2ccc(OC(F)(F)F)cc2)c[nH]1)C1(N)COC1` (racemic) [Example 15, 3-(1-{4-[4-(Trifluoromethoxy)phenyl]-1H-imidazol-2-yl}propyl)oxetan-3-amine], the IC50 was 11 nM.

On to `NC1(Cc2nc(-c3ccc(S(F)(F)(F)(F)F)cc3)c[nH]2)COC1` [Example 6, 3-({4-[4-(Pentafluoro-λ^6-sulfanyl)phenyl]-1H-imidazol-2-yl}methyl)oxetan-3-amine], for which the IC50 is 920 nM.

Consider `CC[C@H](c1nc(-c2ccc(OC(F)(F)F)cc2)c[nH]1)C1(N)COC1` (single isomer, unassigned) [Example 16], for which the IC50 is 32 nM.

In the case of `CC(c1nc(-c2ccc(C(F)(F)F)cc2)c[nH]1)C1(N)COC1` (racemic) [Example 12, 3-(1-{4-[4-(Trifluoromethyl)phenyl]-1H-imidazol-2-yl}ethyl)oxetan-3-amine], the IC50 was 9.7 nM.

For the compound `NC1(Cc2nc(-c3ccc(OC(F)(F)F)cc3)c[nH]2)CCOCC1` [Example 7, 4-({4-[4-(Trifluoromethoxy)phenyl]-1H-imidazol-2-yl}methyl)tetrahydro-2H-pyran-4-amine], the IC50 was 400 nM.

For `CC[C@@H](c1nc(-c2ccc(OC(F)(F)F)cc2)c[nH]1)C1(N)COC1` (single isomer, unassigned) [Example 17], the IC50 is 75 nM.

Regarding `CC(c1nc(-c2ccc(OC(F)(F)F)cc2)c[nH]1)C1(N)COC1` (racemic) [Example 9, 3-(1-{4-[4-(Trifluoromethoxy)phenyl]-1H-imidazol-2-yl}ethyl)oxetan-3-amine], the IC50 is 26 nM.

For the compound `Cc1cc(-c2c[nH]c(CC3(N)COC3)n2)ccc1Cl` [Example 2, 3-{[4-(4-Chloro-3-methylphenyl)-1H-imidazol-2-yl]methyl}oxetan-3-amine], the IC50 is 360 nM.

Take `NC1(Cc2nc(-c3ccc(OC(F)(F)F)cc3)c[nH]2)CCCOC1` (stereo not shown) [Example 1, 3-({4-[4-(Trifluoromethoxy)phenyl]-1H-imidazol-2-yl}methyl)tetrahydro-2H-pyran-3-amine]: the IC50 was 190 nM.

As for `NC1(Cc2nc(-c3ccc(OC(F)F)cc3)c[nH]2)COC1` [Example 5, 3-({4-[4-(Difluoromethoxy)phenyl]-1H-imidazol-2-yl}methyl)oxetan-3-amine], the IC50 was 480 nM.

In the case of `NC1(Cc2nc(-c3ccc(OC(F)(F)F)cc3)c[nH]2)CCOC1` (stereo not shown) [Example 3, 3-({4-[4-(Trifluoromethoxy)phenyl]-1H-imidazol-2-yl}methyl)tetrahydrofuran-3-amine], the IC50 was 260 nM.

`C[C@H](c1nc(-c2ccc(OC(F)(F)F)cc2)c[nH]1)C1(N)COC1` (single isomer, unassigned) [Example 10]: the IC50 is 3.3 nM.

With `C[C@@H](c1nc(-c2ccc(C(F)(F)F)cc2)c[nH]1)C1(N)COC1` (single isomer, unassigned) [Example 14], the IC50 is 51 nM.

As to `NC1(Cc2nc(-c3ccc(C(F)(F)F)cc3)c[nH]2)COC1` [Example 4, 3-({4-[4-(Trifluoromethyl)phenyl]-1H-imidazol-2-yl}methyl)oxetan-3-amine], the IC50 is 360 nM.

With `C[C@@H](c1nc(-c2ccc(OC(F)(F)F)cc2)c[nH]1)C1(N)COC1` (single isomer, unassigned) [Example 11], the IC50 is 9 nM.

Source of the values: US9079878B2, “(4-phenylimidazol-2-yl) ethylamine derivatives useful as sodium channel modulators” (Pfizer Limited, priority 2011, dated 2015).
